Legend:
[1] = tested on: C/EBPβ; test: C/EBPβ activation (phosphorylation, nuclear translocation) by immunochemical method in treated cells; type: cell-based; set-up: key to C/EBPβ activation: O: same enzyme induction as oltipraz; OO: stronger enzyme induction than oltipraz; conditions: for C/EBPβ activation: 30 μM, 24 hours, nuclear fractions or lysates, relative to oltipraz; for phosphorylation of 105Serine residue of C/EBPβ: after 3 hours from the culture; for p-C/EBPβ (105Serine) localisation, cytoplasmic to nuclear fractions: after 6 hours
Experimental: (§1) The present experimental example is to confirm C/EBPβ activation by using Compound 1 and Compound 2 which were prepared in the above Examples, and a degree of increase of Glutathione S-transferase A (GSTA), a representative gene which is induced by C/EBPβ activation. […] 0.7 mg/ml of MTT (yellow tetrazolium salt) was added thereto and further cultured for 4 hours. Since MTT is reduced to insoluble formazan crystal in survived cells, the produced crystal was dissolved with DMSO solvent, and the absorbance at 595 nm was measured. The cells were cultured with the newly prepared compounds except for the compounds which kill cells, i.e., Compound 1 and Compound 2 (each 30 μM), for 24 hours, and C/EBPβ activation and GSTA expression in nuclear fractions or lysates obtained from the treated cells were measured by immunochemical method.
When C/EBPβ gene is deleted in animals, regeneration of live tissue is impossible [Greenbaum et al., J Clin Invest. 1998; 102(5):996-1007]. C/EBPβ activation inhibits transforming growth factors (TGF-β) which is a mediating factor of hepatic fibrosis [Kang et al., FASEB J. 2002; 16(14):1988-90]. Therefore, C/EBPβ activation plays an important role in liver tissue regeneration and hepatic fibrosis inhibition. C/EBPβ activation process takes place by mediating phosphorylation of specific amino acid residue, i.e., ^105Serine residue of C/EBPβ [Buck et al., Mol. Cell. 1999; 4(6):1087-92]. Under this background art, it was observed whether or not direct increase of RSK1's activity by the compounds of the present invention induces phosphorylation of ^105Serine residue of C/EBPβ. […] In this experimental example, oltipraz was used as comparative example.

[2] = tested on: Glutathione S-transferase A (GSTA); test: GSTA expression induced by C/EBPβ activation, immunochemical method; type: cell-based; set-up: key: +: similar activation effects to oltipraz; ++: stronger activation effects than oltipraz; conditions: 30 μM, 24 hours, nuclear fractions or lysates, relative to oltipraz
Experimental: as §1
When C/EBPβ gene is deleted in animals, regeneration of live tissue is impossible [Greenbaum et al., J Clin Invest. 1998; 102(5):996-1007]. C/EBPβ activation inhibits transforming growth factors (TGF-β) which is a mediating factor of hepatic fibrosis [Kang et al., FASEB J. 2002; 16(14):1988-90]. Therefore, C/EBPβ activation plays an important role in liver tissue regeneration and hepatic fibrosis inhibition. […]

Row | Compound | degree of phosphorylation of 188Threonine residue of C/EBPβ [1] | C/EBPβ activation [1] | phosphorylation of 105Serine residue of C/EBPβ [1] | p-C/EBPβ (105Serine) localisation, cytoplasmic to nuclear fractions [1] | GSTA induction [2]
1 | S=c1ssc2c1CN(Cc1ccccc1)CC2 [Compound 1, 5-benzyl-4,5,6,7-tetrahydro-1,2-dithiolo[4,3-c]pyridine-3-thion] | not changed at all | O | increased | moved into the nuclear fractions | ++
2 | CCOC(=O)N1CCc2ssc(=S)c2C1 [Compound 2, 3-thioxo-6,7-dihydro-3H,4H-1,2-dithiolo[4,3-c]pyridine-5-carboxylic acid ethyl ester] | not changed at all | O | increased | moved into the nuclear fractions | ++
